# Source: ChEMBL document CHEMBL1287762, “Synthesis and biological evaluation of 3-[4-(amino/methylsulfonyl)phenyl]methylene-indolin-2-one derivatives as novel COX-1/2 and 5-LOX inhibitors” (Bioorg Med Chem Lett, 2010)
# Legend:
# [1] = Inhibition of 5-LOX in rabbit peripheral venous blood assessed as formation of […] after 30 mins by HPLC; type: tissue-based, Oryctolagus cuniculus
# [2] = molecular target: T1, Prostaglandin G/H synthase 1 (Oryctolagus cuniculus, UniProt O97554); test: Inhibition of COX-1 in rabbit peripheral venous blood assessed as formation of 12-hydroxyheptadecatrienoic acid after 24 hrs by HPLC in presence of calcium ionophore A23187
# T1 sequence (O97554 whole entry): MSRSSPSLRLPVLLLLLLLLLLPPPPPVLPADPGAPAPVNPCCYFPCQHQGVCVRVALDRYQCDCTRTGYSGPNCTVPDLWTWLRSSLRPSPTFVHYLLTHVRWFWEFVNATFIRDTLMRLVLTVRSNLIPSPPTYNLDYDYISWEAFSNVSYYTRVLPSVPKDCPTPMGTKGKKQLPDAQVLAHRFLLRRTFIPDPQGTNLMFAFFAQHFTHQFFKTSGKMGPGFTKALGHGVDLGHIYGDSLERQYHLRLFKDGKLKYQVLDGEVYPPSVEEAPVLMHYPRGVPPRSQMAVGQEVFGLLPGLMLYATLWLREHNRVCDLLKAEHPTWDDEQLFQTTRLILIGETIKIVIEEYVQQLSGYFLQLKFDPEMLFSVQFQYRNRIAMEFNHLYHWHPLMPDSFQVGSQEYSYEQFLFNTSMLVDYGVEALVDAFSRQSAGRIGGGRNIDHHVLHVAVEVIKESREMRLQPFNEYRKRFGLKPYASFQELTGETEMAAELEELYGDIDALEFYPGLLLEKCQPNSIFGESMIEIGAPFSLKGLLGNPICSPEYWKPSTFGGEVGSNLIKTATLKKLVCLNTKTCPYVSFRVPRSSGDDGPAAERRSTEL
# [3] = molecular target: T2, Prostaglandin G/H synthase 2 (Oryctolagus cuniculus, UniProt O02768); test: Inhibition of COX-2 in rabbit peripheral venous blood assessed as formation of 12-hydroxyheptadecatrienoic acid after 24 hrs in by HPLC presence of calcium ionophore […] and lipopolysaccharide; type: tissue-based
# T2 sequence (O02768 whole entry): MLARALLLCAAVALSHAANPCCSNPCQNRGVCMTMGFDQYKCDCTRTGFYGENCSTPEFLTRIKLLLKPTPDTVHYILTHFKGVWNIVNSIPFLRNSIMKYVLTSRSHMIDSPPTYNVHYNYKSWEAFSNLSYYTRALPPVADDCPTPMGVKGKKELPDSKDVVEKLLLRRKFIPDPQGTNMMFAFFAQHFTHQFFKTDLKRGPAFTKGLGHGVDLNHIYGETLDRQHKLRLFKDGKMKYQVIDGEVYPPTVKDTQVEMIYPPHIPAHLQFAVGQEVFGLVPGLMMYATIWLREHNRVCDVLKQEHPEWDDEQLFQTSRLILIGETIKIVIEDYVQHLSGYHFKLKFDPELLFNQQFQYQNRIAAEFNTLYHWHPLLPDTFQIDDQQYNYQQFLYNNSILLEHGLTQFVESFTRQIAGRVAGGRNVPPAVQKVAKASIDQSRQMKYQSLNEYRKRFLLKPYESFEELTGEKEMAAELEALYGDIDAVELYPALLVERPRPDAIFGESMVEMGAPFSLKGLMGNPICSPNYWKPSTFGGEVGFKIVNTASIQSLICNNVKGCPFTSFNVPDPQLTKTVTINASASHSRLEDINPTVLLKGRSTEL
# Rattus norvegicus [4] = test: Ulcerogenic effect in Wistar rat assessed as gastric ulcer area at 10.38 mg/kg, po administered for 7 days by microscopy; type: toxicity, organism-based, Stomach; parameters: dose 10.38 mg/kg, route oral; conditions: in vivo, 168 h
# Rattus norvegicus [5] = test: Antiinflammatory activity in Wistar rat assessed as inhibition of carrageenan-induced paw edema at 10.38 mg/kg, po administered 1 hr before carrageenan challenge measured at 6 hrs by plethysmometer; type: functional
# Mus musculus [6] = test: Analgesic activity in BALB/c mouse assessed as inhibition of acetic acid-induced writhing response for 15 mins at 20.76 mg/kg, po; type: functional; conditions: 0.25 h
# Rattus norvegicus [7] = test: Antiinflammatory activity in Wistar rat assessed as inhibition of carrageenan-induced paw edema at 10.38 mg/kg, po administered 1 hr before carrageenan challenge measured at 1 hr by plethysmometer; type: functional
# Rattus norvegicus [8] = test: Antiinflammatory activity in Wistar rat assessed as inhibition of carrageenan-induced paw edema at 10.38 mg/kg, po administered 1 hr before carrageenan challenge measured at 3 hrs by plethysmometer; type: functional
# Rattus norvegicus [9] = test: Antiinflammatory activity in Wistar rat assessed as inhibition of carrageenan-induced paw edema at 1 mg/kg, po administered 1 hr before carrageenan challenge measured at 3 hrs by plethysmometer; type: functional
# Rattus norvegicus [10] = test: Antiinflammatory activity in Wistar rat assessed as inhibition of carrageenan-induced paw edema at 13 mg/kg, po administered 1 hr before carrageenan challenge measured at 6 hrs by plethysmometer; type: functional
# Oryctolagus cuniculus = species on record: Oryctolagus cuniculus; test: Selectivity ratio, IC50 for COX-1in rabbit peripheral venous blood to IC50 for COX-2 in rabbit peripheral venous blood; type: tissue-based
# Rattus norvegicus [11] = test: Ulcerogenic effect in Wistar rat assessed as gastric ulcer area at 13 mg/kg, po administered for 7 days by microscopy; type: toxicity, organism-based, Stomach; parameters: dose 13 mg/kg, route oral; conditions: in vivo, 168 h
# Rattus norvegicus [12] = test: Antiinflammatory activity in Wistar rat assessed as inhibition of carrageenan-induced paw edema at 13 mg/kg, po administered 1 hr before carrageenan challenge measured at 1 hr by plethysmometer; type: functional
# Mus musculus [13] = test: Analgesic activity in BALB/c mouse assessed as inhibition of acetic acid-induced writhing response for 15 mins at 26 mg/kg, po; type: functional; conditions: 0.25 h
# Rattus norvegicus [14] = test: Antiinflammatory activity in Wistar rat assessed as inhibition of carrageenan-induced paw edema at 10.47 mg/kg, po administered 1 hr before carrageenan challenge measured at 3 hrs by plethysmometer; type: functional
# Rattus norvegicus [15] = test: Antiinflammatory activity in Wistar rat assessed as inhibition of carrageenan-induced paw edema at 10.47 mg/kg, po administered 1 hr before carrageenan challenge measured at 6 hrs by plethysmometer; type: functional
# Rattus norvegicus [16] = test: Antiinflammatory activity in Wistar rat assessed as inhibition of carrageenan-induced paw edema at 10.47 mg/kg, po administered 1 hr before carrageenan challenge measured at 1 hr by plethysmometer; type: functional
# Mus musculus [17] = test: Analgesic activity in BALB/c mouse assessed as inhibition of acetic acid-induced writhing response for 15 mins at 20.94 mg/kg, po; type: functional; conditions: 0.25 h
# Rattus norvegicus [18] = test: Ulcerogenic effect in Wistar rat assessed as gastric ulcer area at 10.47 mg/kg, po administered for 7 days by microscopy; type: toxicity, organism-based, Stomach; parameters: dose 10.47 mg/kg, route oral; conditions: in vivo, 168 h
Structure (SMILES),IC50 [1],IC50 [2],IC50 [3],other results
NS(=O)(=O)c1ccc(/C=C2/C(=O)Nc3cc(Cl)ccc32)cc1,> 50 µM,> 50 µM,> 50 µM,–
NS(=O)(=O)c1ccc(/C=C2/C(=O)Nc3ccccc32)cc1,> 50 µM,> 50 µM,> 50 µM,–
NC(=O)N1C(=O)/C(=C(\O)c2cccs2)c2cc(Cl)ccc21 [TENIDAP],36.7 µM,2.56 µM,–,Activity (Rattus norvegicus [4]): 3.75 mm2; inhibition in vivo at 10.38 mg/kg (Rattus norvegicus [5]): 19.6%; inhibition in vivo at 20.76 mg/kg (Mus musculus [6]): 70.4%; inhibition in vivo at 10.38 mg/kg (Rattus norvegicus [7]): 23.8%; inhibition in vivo at 10.38 mg/kg (Rattus norvegicus [8]): 38.9%
NS(=O)(=O)c1ccc(/C=C2/C(=O)Nc3ccc([N+](=O)[O-])cc32)cc1,3.06 µM,0.14 µM,3.72 µM,inhibition in vivo at 10.47 mg/kg (Rattus norvegicus [14]): 22.2%; inhibition in vivo at 10.47 mg/kg (Rattus norvegicus [15]): 13.7%; Ratio IC50 (Oryctolagus cuniculus): 0.04; inhibition in vivo at 10.47 mg/kg (Rattus norvegicus [16]): 9.52%; inhibition in vivo at 20.94 mg/kg (Mus musculus [17]): 40.8%; Activity (Rattus norvegicus [18]): 0.12 mm2

# Now from value to compound, other results behind:
IC50 [1],IC50 [2],IC50 [3],Structure (SMILES),other results
> 50 µM,> 50 µM,> 50 µM,Cc1ccc2c(c1)/C(=C\c1ccc(S(C)(=O)=O)cc1)C(=O)N2,–
0.61 µM,–,–,CC(C)(C)c1cc(/C=C2\SC(=N)NC2=O)cc(C(C)(C)C)c1O.CS(=O)(=O)O [DARBUFELONE MESYLATE],inhibition in vivo at 1 mg/kg (Rattus norvegicus [9]): 36.1%; inhibition in vivo at 13 mg/kg (Rattus norvegicus [10]): 17.6%; Ratio IC50 (Oryctolagus cuniculus): 342; Activity (Rattus norvegicus [11]): 0.87 mm2; inhibition in vivo at 13 mg/kg (Rattus norvegicus [12]): 19.1%; inhibition in vivo at 26 mg/kg (Mus musculus [13]): 86.2%
9.42 µM,8.99 µM,> 50 µM,CS(=O)(=O)c1ccc(/C=C2/C(=O)Nc3ccc(F)cc32)cc1,–
